The subject of the data set is CCRIS mutagenicity, Ames/micronucleus/aberration tests. The experiment in a line: CCRIS mutagenicity studies.
Where [1] appears, read: Test System: AMES SALMONELLA TYPHIMURIUM, Strain/Indicator: TA98, Metabolic Activation: NONE, Method: STANDARD PLATE.
The mark [2] stands for this setting: Test System: AMES SALMONELLA TYPHIMURIUM, Strain/Indicator: TA100, Metabolic Activation: NONE, Method: STANDARD PLATE.
The mark [3] stands for this setting: Test System: AMES SALMONELLA TYPHIMURIUM, Strain/Indicator: TA1535, Metabolic Activation: NONE, Method: STANDARD PLATE.
Where [4] appears, read: Test System: AMES SALMONELLA TYPHIMURIUM, Strain/Indicator: TA1537, Metabolic Activation: NONE, Method: STANDARD PLATE.
The mark [5] stands for this setting: Test System: AMES SALMONELLA TYPHIMURIUM, Strain/Indicator: TA1538, Metabolic Activation: NONE, Method: STANDARD PLATE.

The source made the active and inactive calls. How the calls were made is not given here.

In the case of `CCCCC[C@@](C)(O)/C=C/[C@H]1[C@H](O)CC(=O)[C@@H]1C/C=C\CCCC(=O)O`, the mutagenic call runs as follows: under setting [1], “inactive; negative”; (Test System: AMES SALMONELLA TYPHIMURIUM, Strain/Indicator: TA98, Metabolic Activation: S-9, Method: STANDARD PLATE) “inactive; negative”; under setting [2], “inactive; negative”; (Test System: AMES SALMONELLA TYPHIMURIUM, Strain/Indicator: TA100, Metabolic Activation: S-9, Method: STANDARD PLATE) “inactive; negative”; under setting [3], “inactive; negative”; (Test System: AMES SALMONELLA TYPHIMURIUM, Strain/Indicator: TA1535, Metabolic Activation: S-9, Method: STANDARD PLATE) “inactive; negative”. Also, the mutagenic call under setting [4] is “inactive; negative”; the mutagenic call (Test System: AMES SALMONELLA TYPHIMURIUM, Strain/Indicator: TA1537, Metabolic Activation: S-9, Method: STANDARD PLATE) was “inactive; negative”; the mutagenic call under setting [5] was “inactive; negative”; the mutagenic call (Test System: AMES SALMONELLA TYPHIMURIUM, Strain/Indicator: TA1538, Metabolic Activation: S-9, Method: STANDARD PLATE) is “inactive; negative”; the mutagenic call (Test System: E. COLI, Strain/Indicator: WP2 UVRA, Metabolic Activation: NONE, Method: STANDARD PLATE) is “inactive; negative”; the mutagenic call (Test System: E. COLI, Strain/Indicator: WP2 UVRA, Metabolic Activation: S-9, Method: STANDARD PLATE) is “inactive; negative”.

Turning to `C/C=C(/C(=C/C)c1ccc(O)cc1)c1ccc(O)cc1`, the mutagenic call was “active; positive (ploidy changes)” (End Point: IN VITRO CHROMOSOMAL ABERRATIONS, Test System: CHINESE HAMSTER CELL DON (22;XY), Metabolic Activation: NONE); “inactive; negative” under setting [1]; “inactive; negative” (Test System: AMES SALMONELLA TYPHIMURIUM, Strain/Indicator: TA98, Metabolic Activation: RAT, LIVER, S-9, Method: STANDARD PLATE); “inactive; negative; toxicity at 100 ug/plate” under setting [2]; “inactive; negative; toxicity at 100 ug/plate” (Test System: AMES SALMONELLA TYPHIMURIUM, Strain/Indicator: TA100, Metabolic Activation: RAT, LIVER, S-9, Method: STANDARD PLATE); “inactive; negative; toxicity at 50 ug/plate” under setting [3]. Besides, the mutagenic call (Test System: AMES SALMONELLA TYPHIMURIUM, Strain/Indicator: TA1535, Metabolic Activation: RAT, LIVER, S-9, Method: STANDARD PLATE) was “inactive; negative; toxicity at 100 ug/plate”; the mutagenic call under setting [4] was “inactive; negative”; the mutagenic call (Test System: AMES SALMONELLA TYPHIMURIUM, Strain/Indicator: TA1537, Metabolic Activation: RAT, LIVER, S-9, Method: STANDARD PLATE) was “inactive; negative”; the mutagenic call under setting [5] is “inactive; negative”; the mutagenic call (Test System: AMES SALMONELLA TYPHIMURIUM, Strain/Indicator: TA1538, Metabolic Activation: RAT, LIVER, S-9, Method: STANDARD PLATE) was “inactive; negative; toxicity at 100 ug/plate”.

For `Nc1cc(C(=O)O)c(O)c(S(=O)(=O)O)c1`, the mutagenic call reads like this: (Test System: AMES SALMONELLA TYPHIMURIUM, Strain/Indicator: TA97, Metabolic Activation: HAMSTER, LIVER, S-9, AROCLOR 1254 (10 OR 30%), Method: PREINCUBATION) “inactive; negative”; (Test System: AMES SALMONELLA TYPHIMURIUM, Strain/Indicator: TA97, Metabolic Activation: NONE, Method: PREINCUBATION) “inactive; negative”; (Test System: AMES SALMONELLA TYPHIMURIUM, Strain/Indicator: TA97, Metabolic Activation: RAT, LIVER, S-9, AROCLOR 1254 (10%), Method: PREINCUBATION) “inactive; negative”; (Test System: AMES SALMONELLA TYPHIMURIUM, Strain/Indicator: TA97, Metabolic Activation: RAT, LIVER, S-9, AROCLOR 1254 (30%), Method: PREINCUBATION) “inactive; negative”; (Test System: AMES SALMONELLA TYPHIMURIUM, Strain/Indicator: TA98, Metabolic Activation: HAMSTER, LIVER, S-9, AROCLOR 1254 (10 OR 30%), Method: PREINCUBATION) “inactive; negative”; (Test System: AMES SALMONELLA TYPHIMURIUM, Strain/Indicator: TA98, Metabolic Activation: NONE, Method: PREINCUBATION) “inactive; negative”. Moreover, the mutagenic call by setting is: (Test System: AMES SALMONELLA TYPHIMURIUM, Strain/Indicator: TA98, Metabolic Activation: RAT, LIVER, S-9, AROCLOR 1254 (10 OR 30%), Method: PREINCUBATION) “inactive; negative”; (Test System: AMES SALMONELLA TYPHIMURIUM, Strain/Indicator: TA100, Metabolic Activation: HAMSTER, LIVER, S-9, AROCLOR 1254 (10 OR 30%), Method: PREINCUBATION) “inactive; negative”; (Test System: AMES SALMONELLA TYPHIMURIUM, Strain/Indicator: TA100, Metabolic Activation: NONE, Method: PREINCUBATION) “inactive; negative”; (Test System: AMES SALMONELLA TYPHIMURIUM, Strain/Indicator: TA100, Metabolic Activation: RAT, LIVER, S-9, AROCLOR 1254 (10 OR 30%), Method: PREINCUBATION) “inactive; negative”; (Test System: AMES SALMONELLA TYPHIMURIUM, Strain/Indicator: TA1535, Metabolic Activation: HAMSTER, LIVER, S-9, AROCLOR 1254 (10 OR 30%), Method: PREINCUBATION) “inactive; negative”; (Test System: AMES SALMONELLA TYPHIMURIUM, Strain/Indicator: TA1535, Metabolic Activation: NONE, Method: PREINCUBATION) “inactive; negative”. The mutagenic call (Test System: AMES SALMONELLA TYPHIMURIUM, Strain/Indicator: TA1535, Metabolic Activation: RAT, LIVER, S-9, AROCLOR 1254 (10 OR 30%), Method: PREINCUBATION) is “inactive; negative”; the mutagenic call (Test System: AMES SALMONELLA TYPHIMURIUM, Strain/Indicator: TA1537, Metabolic Activation: HAMSTER, LIVER, S-9, AROCLOR 1254 (10 OR 30%), Method: PREINCUBATION) is “inactive; negative”; the mutagenic call (Test System: AMES SALMONELLA TYPHIMURIUM, Strain/Indicator: TA1537, Metabolic Activation: NONE, Method: PREINCUBATION) was “inactive; negative”; the mutagenic call (Test System: AMES SALMONELLA TYPHIMURIUM, Strain/Indicator: TA1537, Metabolic Activation: RAT, LIVER, S-9, AROCLOR 1254 (10 OR 30%), Method: PREINCUBATION) was “inactive; negative”.

(Values after PubChem BioAssay AID1259407 (Chemical Carcinogenesis Research Information System (CCRIS), 2018).)
